Experiment [1] can be described thus: COV434 cell viability loss – plate reader, dry powder, SA7, cytotoxicity control for PAX8 inhibitor project, dose response (AID 743145). In kind it is functional, cell-based.
Experiment [2] is described as follows: OV-90 cell viability loss – plate reader, dry powder, SA8, PAX8 inhibitor project, dose response (AID 743149). In kind it is functional, cell-based.
A further experiment deals with T1, Streptokinase A (Streptococcus pyogenes serotype M1, UniProt P10520).
T1 sequence (P10520 whole entry): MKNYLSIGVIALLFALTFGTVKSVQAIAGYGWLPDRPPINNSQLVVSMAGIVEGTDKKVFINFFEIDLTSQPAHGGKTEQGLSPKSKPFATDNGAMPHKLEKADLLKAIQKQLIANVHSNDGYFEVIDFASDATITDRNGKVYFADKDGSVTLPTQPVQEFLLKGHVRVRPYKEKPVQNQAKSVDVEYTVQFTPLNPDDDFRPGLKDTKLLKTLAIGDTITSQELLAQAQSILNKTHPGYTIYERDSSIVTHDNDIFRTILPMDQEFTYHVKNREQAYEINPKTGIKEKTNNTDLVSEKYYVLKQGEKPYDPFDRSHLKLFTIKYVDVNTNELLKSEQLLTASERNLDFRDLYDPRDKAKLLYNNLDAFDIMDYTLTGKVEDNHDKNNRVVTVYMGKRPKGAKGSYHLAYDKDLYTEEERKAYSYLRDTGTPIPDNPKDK
Description: viability-normalized secreted streptokinase activity reduction – plasminogen activation absorbance, OD405, dose response (AID 1914).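 Also: secreted streptokinase activity via plasminogen activation per viability signal from cell pellet.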 In kind it is functional, Streptococcus pyogenes M1 GAS.

Experiment [3] concerns the target T2, Probable nicotinate-nucleotide adenylyltransferase (Staphylococcus aureus (strain N315), UniProt P65502). In kind it is functional, Staphylococcus aureus subsp. aureus N315. The following applies: read-out: IC50_Mean.
Experiment [4] in a line: loss of viability in HepG2 cells – cell-based, CellTiter-Glo, cherry-picked, cytotoxicity control for Shn3 inhibitor project, dose response (AID 624134). In kind it is functional. Background: ATP-based viability assays read luminescence as a measure of living cells.
Experiment [5] deals with T2, Probable nicotinate-nucleotide adenylyltransferase. The experiment is classed as functional, Staphylococcus aureus subsp. aureus N315.
Experiment [6] in a line: reduction of Shn3 3'UTR-driven luciferase in osteoblasts – cell-based, Clone20 osteoblasts, firefly luciferase, cherry-picked, dose response (AID 624132).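 Also: firefly luciferase luminescence from reporter carrying the Shn3 3'UTR in osteoblasts.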 In kind it is functional.
The test system of the next experiment is Streptococcus. Description: GAS UMAA2166 growth inhibition – luminescence, BacTiterGlo, counter-screen for streptokinase expression inhibitor project, dose response (AID 1915).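 Also: potency for reduction of bacterial viability or growth.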 The experiment is classed as functional, organism-based. (In general: Counterscreens check selectivity or assay interference.)
Experiment [7] can be described thus: OVCAR4 cell viability loss – plate reader, dry powder, SA11, cytotoxicity control for PAX8 inhibitor project, dose response (AID 743150). In kind it is functional, cell-based. The following applies: OVCAR-4.
Experiment [8] is described as follows: Trypanosoma cruzi growth suppression in host cells – NIH3T3 host cells, beta-gal luminescence, confirmation (AID 2044).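 Also: intracellular parasites grown in NIH/3T3 mouse fibroblasts as host cells; luminescent beta-galactosidase reporter signal from transgenic T. cruzi replicating inside host cells; inhibitors lower the luminescence signal.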 The experiment is classed as functional, cell-based.
A short description of experiment [9]: decrease of insulin promoter-GFP reporter – imaging, high-content screening, mouse beta cells (AID 1628). The following applies: MIN6. The experiment is classed as functional.
Experiment [10] in a line: non-specific 3'UTR reporter inhibition in Clone20-Shn3RL – cell-based, Renilla luciferase, cherry-picked, counter-screen for Shn3 inhibitor project, dose response (AID 624133). The experiment is classed as functional.
Experiment [11] in a line: OVCAR-3 cell viability loss – plate reader, dry powder samples, PAX8 inhibitor project, dose response (AID 743044). The experiment is classed as functional, cell-based.
Experiment [12] relates to Streptococcus sp. 'group A'. The experiment can be described thus: Streptococcus pyogenes SK(-)GAS viability under kanamycin – luminescence, BacTiterGlo, confirmation, counter-screen for streptokinase expression inhibitor project, dose response (AID 1900). The experiment is classed as functional, organism-based.
The nature of experiment [13]: inhibitors acting on PAX2 in cells – cell-based, plate reader, dry powder samples, selectivity assay for PAX8 inhibitor project, dose response (AID 743048).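 Also: HEK293 cells carrying a WT1 promoter luciferase reporter driven by expressed Pax2; potency is for inhibition of Pax2 driven reporter signal.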 The experiment is classed as functional.
Experiment [14] in a line: toxicity toward immortalized ovarian surface epithelium – cell-based, plate reader, dry powder samples, cytotoxicity control for PAX8 inhibitor project, dose response (AID 743045). In kind it is functional.
The test system of a further experiment is Escherichia coli. The experiment can be described thus: microbe, parasite or virus in culture.
Experiment [15] can be described thus: cells. The experiment is classed as functional, cell-based.
Experiment [16] is described as follows: Luminescence Cell-Based Dose Retest to Confirm Inhibitors of Cancer Stem Cells. [Related pubchem assays (depositor defined):AID2717, AID2721]. In kind it is functional. The following applies: Homo sapiens.
Experiment [17] in a line: MIN6 cell viability loss – mouse insulinoma, cytotoxicity control, dose response (AID 2122).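 Also: confirmatory high-throughput counterscreen run to flag cytotoxic compounds.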 The experiment is classed as functional.
Experiment [18] is described as follows: IGROV1 cell killing – plate reader, dry powder samples, PAX8 inhibitor project, dose response (AID 743043). The experiment is classed as functional, cell-based. The following applies: IGROV-1.
The nature of experiment [19]: NIH3T3 cell viability loss – ATP luminescence, mouse fibroblasts, counter-screen, dose response (AID 2010).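 Also: cells exposed to compound for about 90 hours before reading.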 In kind it is functional, cell-based.
The test system of another experiment is INS1. The experiment can be described thus: INS-1E survival protection against cytokine death – cell-based, luminescence, retest, dose response (AID 449756).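 Also: cell death triggered by IL-1 beta plus TNF-alpha plus IFN-gamma mixture; protective hits raise ATP signal compared with cytokine alone wells.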 In kind it is functional. The settings on record: Rattus norvegicus.
A short description of experiment [20]: COV362 cell viability loss – plate reader, dry powder, SA12, cytotoxicity control for PAX8 inhibitor project, dose response (AID 743144). In kind it is functional, cell-based.
A short description of experiment [21]: cells. In kind it is functional, cell-based. This is another data set of the same source.
The target in experiment [22] is T3, Type-1 angiotensin II receptor (Homo sapiens, UniProt P30556).
T3 sequence (P30556 whole entry): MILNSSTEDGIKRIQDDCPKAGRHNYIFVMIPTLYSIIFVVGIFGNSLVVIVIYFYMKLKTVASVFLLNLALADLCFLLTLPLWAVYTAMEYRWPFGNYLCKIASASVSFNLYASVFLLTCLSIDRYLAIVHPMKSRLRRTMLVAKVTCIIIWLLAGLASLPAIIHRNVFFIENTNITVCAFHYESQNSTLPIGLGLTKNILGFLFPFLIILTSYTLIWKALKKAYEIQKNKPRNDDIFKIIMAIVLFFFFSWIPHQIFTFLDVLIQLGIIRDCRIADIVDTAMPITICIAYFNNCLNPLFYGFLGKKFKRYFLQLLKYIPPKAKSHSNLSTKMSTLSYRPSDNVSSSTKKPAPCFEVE
The experiment can be described thus: agonist activity at AGTR1 – cell-based, uHTS hits, selectivity assay for APJ receptor agonist project, dose response (AID 488865).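 Also: beta-arrestin recruitment to AT1 measured by enzyme fragment complementation luminescence.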 The experiment is classed as functional.

Experiment [23] can be described thus: A2780 cell killing – plate reader, dry powder samples, cytotoxicity control, dose response (AID 743046). In kind it is functional, cell-based.
A further experiment concerns the target Paired box protein Pax-8 (Homo sapiens, UniProt Q06710). The experiment can be described thus: PAX8 transcriptional activity inhibition in RMG-I – RMG-I cells, luciferase, cherry-pick, dose response (AID 687027).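 Also: luciferase reporter driven by Pax8 target thyroperoxidase promoter measured by SteadyGlo luminescence.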 The experiment is classed as functional, cell-based.
The nature of experiment [24]: PAX5 cellular inhibition readout – cell-based, plate reader, dry powder samples, selectivity assay for PAX8 inhibitor project, dose response (AID 743047).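 Also: HEK293 cells carrying a Pax5 driven CD19 promoter luciferase reporter; potency of inhibitors that lower reporter luminescence.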 The experiment is classed as functional.
Experiment [25] can be described thus: PAX8-dependent cell viability loss – plate reader, dry powder, dose response (AID 743049). The experiment is classed as functional, cell-based.
The target in experiment [26] is Intestinal-type alkaline phosphatase (Mus musculus, UniProt P24822). The experiment can be described thus: PubChem AID 488875. In kind it is functional.
Sequence of Intestinal-type alkaline phosphatase (Mus musculus, UniProt P24822) (P24822 whole entry): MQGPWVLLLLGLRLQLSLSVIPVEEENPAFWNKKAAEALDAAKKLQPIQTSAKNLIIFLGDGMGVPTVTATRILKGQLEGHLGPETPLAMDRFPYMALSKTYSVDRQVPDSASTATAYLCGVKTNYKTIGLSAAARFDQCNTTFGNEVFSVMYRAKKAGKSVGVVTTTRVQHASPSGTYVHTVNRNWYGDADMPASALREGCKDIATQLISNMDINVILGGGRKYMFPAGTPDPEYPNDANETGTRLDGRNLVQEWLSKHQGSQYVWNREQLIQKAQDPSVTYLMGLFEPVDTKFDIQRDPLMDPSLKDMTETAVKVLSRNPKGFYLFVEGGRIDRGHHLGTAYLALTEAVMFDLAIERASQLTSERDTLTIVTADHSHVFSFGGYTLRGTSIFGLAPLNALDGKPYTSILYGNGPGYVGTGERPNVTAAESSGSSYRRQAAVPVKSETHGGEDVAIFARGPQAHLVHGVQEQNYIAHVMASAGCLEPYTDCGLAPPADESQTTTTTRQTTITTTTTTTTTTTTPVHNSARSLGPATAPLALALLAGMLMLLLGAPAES
In experiment [27] the target is T4, Alkaline phosphatase, tissue-nonspecific isozyme (Homo sapiens, UniProt P05186).
T4 sequence (P05186 whole entry): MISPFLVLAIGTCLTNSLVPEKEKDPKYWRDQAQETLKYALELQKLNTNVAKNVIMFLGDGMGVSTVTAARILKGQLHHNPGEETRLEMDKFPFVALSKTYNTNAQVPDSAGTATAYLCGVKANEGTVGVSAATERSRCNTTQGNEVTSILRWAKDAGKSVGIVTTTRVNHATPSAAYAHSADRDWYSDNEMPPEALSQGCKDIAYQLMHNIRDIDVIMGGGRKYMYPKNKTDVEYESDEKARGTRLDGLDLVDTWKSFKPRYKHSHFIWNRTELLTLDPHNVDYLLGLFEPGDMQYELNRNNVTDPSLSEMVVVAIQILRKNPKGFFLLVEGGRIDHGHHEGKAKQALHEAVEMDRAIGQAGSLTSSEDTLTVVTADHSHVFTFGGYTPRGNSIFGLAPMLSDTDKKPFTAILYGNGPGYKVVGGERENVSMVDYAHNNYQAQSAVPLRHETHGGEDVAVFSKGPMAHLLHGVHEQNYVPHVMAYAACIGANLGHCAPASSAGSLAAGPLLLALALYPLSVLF
Description: activation of tissue-nonspecific alkaline phosphatase – biochemical, TNAP isozyme, human IAP uHTS hits, selectivity assay for human IAP activator project, dose response (AID 488886).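 Also: potency of compounds raising TNAP activity as a selectivity check on IAP activators.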 In kind it is functional.

In experiment [28] the target is T5, Intestinal-type alkaline phosphatase (Homo sapiens, UniProt P09923). Description: human intestinal alkaline phosphatase activators, dose response, biochemical, luminescence, uHTS hits (AID 463120). The experiment is classed as functional.
T5 sequence (P09923 whole entry): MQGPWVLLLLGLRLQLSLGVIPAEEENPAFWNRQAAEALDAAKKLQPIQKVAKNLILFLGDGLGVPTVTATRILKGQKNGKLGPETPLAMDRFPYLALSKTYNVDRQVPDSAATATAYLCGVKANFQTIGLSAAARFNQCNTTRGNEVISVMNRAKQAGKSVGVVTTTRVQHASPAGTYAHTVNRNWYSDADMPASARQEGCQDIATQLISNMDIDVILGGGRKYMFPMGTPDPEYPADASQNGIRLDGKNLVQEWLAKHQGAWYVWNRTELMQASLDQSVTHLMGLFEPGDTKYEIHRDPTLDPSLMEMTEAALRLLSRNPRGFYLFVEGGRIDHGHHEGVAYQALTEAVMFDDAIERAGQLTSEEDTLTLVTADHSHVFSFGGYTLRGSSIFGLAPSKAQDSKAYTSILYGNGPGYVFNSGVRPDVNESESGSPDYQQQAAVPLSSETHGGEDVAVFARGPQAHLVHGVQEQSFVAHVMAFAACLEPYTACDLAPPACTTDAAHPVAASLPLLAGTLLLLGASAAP
Experiment [29] addresses T5, Intestinal-type alkaline phosphatase. Description: activation of human intestinal alkaline phosphatase – biochemical, luminescent, uHTS hits, set 2, dose response (AID 488817).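 Also: potency of activators that raise enzyme activity.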 The experiment is classed as functional.

Activity calls are given as the source filed them.

The AC50 is the concentration giving half of the maximal activity seen. As usually defined, the EC50 is the concentration at which the effect is half-maximal.
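For IC50 Mean in this document: confirmatory dose-response retesting of NadD inhibitor hits first found in an ultra-high-throughput screen.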

T2 sequence (P65502 whole entry): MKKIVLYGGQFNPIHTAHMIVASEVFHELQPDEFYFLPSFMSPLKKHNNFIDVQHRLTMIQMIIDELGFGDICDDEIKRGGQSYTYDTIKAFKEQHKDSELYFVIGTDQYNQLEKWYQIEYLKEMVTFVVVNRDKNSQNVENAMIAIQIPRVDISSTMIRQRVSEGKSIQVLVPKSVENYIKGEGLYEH
Sequence of Paired box protein Pax-8 (Q06710 whole entry): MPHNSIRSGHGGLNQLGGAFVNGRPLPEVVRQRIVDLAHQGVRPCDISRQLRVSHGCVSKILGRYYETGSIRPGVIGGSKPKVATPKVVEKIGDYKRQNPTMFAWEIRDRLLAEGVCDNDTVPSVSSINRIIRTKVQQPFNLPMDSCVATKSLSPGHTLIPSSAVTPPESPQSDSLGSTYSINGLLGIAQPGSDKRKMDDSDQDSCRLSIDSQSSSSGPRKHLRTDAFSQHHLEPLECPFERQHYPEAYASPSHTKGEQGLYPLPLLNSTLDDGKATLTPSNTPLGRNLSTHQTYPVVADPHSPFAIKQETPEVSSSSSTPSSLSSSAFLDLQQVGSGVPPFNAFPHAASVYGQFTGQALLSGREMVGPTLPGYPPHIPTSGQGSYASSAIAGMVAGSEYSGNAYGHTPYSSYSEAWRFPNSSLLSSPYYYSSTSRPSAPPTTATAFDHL

Regarding `Cc1ccc2nc(NNC(=O)c3ccc(S(=O)(=O)N4CCc5ccccc5C4)cc3)sc2c1`, the AC50 was 13.7 µM (active) in experiment [1]; 9.99 µM (active) in [2]; 2.88 µM (active) in [4]; 1.62 µM (active) in [6]; 31.1 µM (active) in [7]; 1.78 µM (active) in experiment [10]. For the same compound, the AC50 is 31.1 µM (active) in experiment [11]; 6.18 µM (active) in experiment [13]; 19.5 µM (active) in experiment [14]; 39 µM (active) in the experiment on Escherichia coli; 3.74 µM (active) in [16]; 8.28 µM (active) in experiment [18]. The concentration at half-maximal activity (AC50) was 2.17 µM (active) in the experiment with INS1; 18.3 µM (active) in experiment [20]; 14.8 µM (active) in experiment [23]; 3.01 µM (active) at Paired box protein Pax-8; 5.81 µM (active) in experiment [24]; 9.32 µM (active) in experiment [25]. The concentration for a half-maximal effect (EC50) is > 150 µM (not active) at Streptokinase A; > 150 µM (not active) with Streptococcus; 0.904 µM (active) in experiment [8]; 0.499 µM (active) in experiment [12]; > 350 µM (not active) in the experiment “cells [15]”; 3.65 µM (active) in experiment [19]. In addition, the half-maximal effective concentration (EC50) is 13.5 µM (active) in the experiment “cells [21]” and > 100 µM (inactive) in experiment [22]. Moreover, the IC50 in experiment [3] is 52.7 µM (active); in experiment [5], 9.9 µM (active); in experiment [9], 3.03 µM (active); in [17] it was 2.7 µM (active).
`CC(N=C(S)NC1CCC(C(C)(C)C)CC1)c1ccccc1` (centres undefined): the EC50 in [26] is 22.4 µM (active); in experiment [27], 38.8 µM (active); in experiment [28], 39.8 µM (active); in [29], 44.3 µM (active).

For the origin of these results see ChEMBL document CHEMBL1201862, “PubChem BioAssay data set” (2004).
